The subject of the data set is Raw264.7 macrophage cells. The experiment in a line: Cell viability of Raw264.7 macrophage cells by MTT assay (cytotoxicity). The format is cell-based. Conditions: Raw264.7, MTT. As for the experimental part: The cell viabilities of Raw264.7 macrophage cells were assessed by MTT assay to evaluate the cytotoxicities of the pseudoceramide compounds. When the cell viability was ≥80% by MTT assay, the pseudoceramide compound was judged to be not cytotoxic. The cell viabilities of the pseudoceramide compounds were […] at concentrations of 1-50 μg/mL, indicating no toxicity to Raw264.7 macrophage (Table 1). Another experiment for anti-inflammatory effects of the pseudoceramide compounds was conducted at concentrations of 1-50 μg/mL.

The structures appear in SMILES notation.

`CCCCC/C=C\C/C=C\CCCCCCCC(=O)NC(CO)CO` [Example 2, (9Z,12Z)—N-(1,3-dihydroxypropan-2-yl)octadeca-9,12-dienamide]: the “Cell viability (%)” value reads like this: (concentration 5.0 (μg/mL)) 100.35%; (concentration 10.0 (μg/mL)) 100.24%; (concentration 25.0 (μg/mL)) 100.09%; (concentration 50.0 (μg/mL)) 93.80%.
Consider `CCCCCCCC/C=C\CCCCCCCC(=O)NC(CO)CO` [Example 1, N-(1,3-dihydroxypropan-2-yl)oleamide], for which the “Cell viability (%)” value was found to be 100.99% (concentration 5.0 (μg/mL)), 102.08% (concentration 10.0 (μg/mL)), 102.14% (concentration 25.0 (μg/mL)) and 102.22% (concentration 50.0 (μg/mL)).
Take `CC/C=C\C/C=C\C/C=C\CCCCCCCC(=O)NC(CO)CO` [Example 3, (9Z,12Z,15Z)—N-(1,3-dihydroxypropan-2-yl)octadeca-9,12,15-trienamide]: the “Cell viability (%)” value is on record as 95.72% (concentration 5.0 (μg/mL)), 101.01% (concentration 10.0 (μg/mL)), 96.58% (concentration 25.0 (μg/mL)) and 96.64% (concentration 50.0 (μg/mL)).
With `Cc1ccnc(N)c1` [2-Amino-4-methylpyridine, reference compound], the “Cell viability (%)” value (10 μM) was 103.13%.
